Measurements taken from ChEMBL document CHEMBL1201862, “PubChem BioAssay data set” (2004).
The source made the active and inactive calls.

What was measured:
[1] = biological target: Cytochrome P450 2D6 (Homo sapiens, UniProt P10635);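 also: CYP2D6 member of a cytochrome P450 panel assay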
[2] = biological target: T1, Cytochrome P450 1A2 (Homo sapiens, UniProt P05177);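 also: PubChem cytochrome P450 panel assay, CYP1A2 panel member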
T1 sequence (P05177 whole entry): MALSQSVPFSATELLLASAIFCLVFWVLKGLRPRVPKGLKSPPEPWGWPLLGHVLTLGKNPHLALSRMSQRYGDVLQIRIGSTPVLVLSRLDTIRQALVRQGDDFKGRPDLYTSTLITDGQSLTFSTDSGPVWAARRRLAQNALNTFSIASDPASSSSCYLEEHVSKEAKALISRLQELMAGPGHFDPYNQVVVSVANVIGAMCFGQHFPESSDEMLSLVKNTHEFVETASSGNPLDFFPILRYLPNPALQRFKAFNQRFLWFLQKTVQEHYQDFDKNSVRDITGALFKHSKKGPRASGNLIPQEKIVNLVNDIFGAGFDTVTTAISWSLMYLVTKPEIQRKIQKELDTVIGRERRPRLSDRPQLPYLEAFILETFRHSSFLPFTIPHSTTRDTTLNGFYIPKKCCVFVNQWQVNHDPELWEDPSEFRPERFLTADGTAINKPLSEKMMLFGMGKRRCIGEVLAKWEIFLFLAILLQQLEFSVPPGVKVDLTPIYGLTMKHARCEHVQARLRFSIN

[3] = biological target: T2, Cytochrome P450 2C9 (Homo sapiens, UniProt P11712)
T2 sequence (P11712 whole entry): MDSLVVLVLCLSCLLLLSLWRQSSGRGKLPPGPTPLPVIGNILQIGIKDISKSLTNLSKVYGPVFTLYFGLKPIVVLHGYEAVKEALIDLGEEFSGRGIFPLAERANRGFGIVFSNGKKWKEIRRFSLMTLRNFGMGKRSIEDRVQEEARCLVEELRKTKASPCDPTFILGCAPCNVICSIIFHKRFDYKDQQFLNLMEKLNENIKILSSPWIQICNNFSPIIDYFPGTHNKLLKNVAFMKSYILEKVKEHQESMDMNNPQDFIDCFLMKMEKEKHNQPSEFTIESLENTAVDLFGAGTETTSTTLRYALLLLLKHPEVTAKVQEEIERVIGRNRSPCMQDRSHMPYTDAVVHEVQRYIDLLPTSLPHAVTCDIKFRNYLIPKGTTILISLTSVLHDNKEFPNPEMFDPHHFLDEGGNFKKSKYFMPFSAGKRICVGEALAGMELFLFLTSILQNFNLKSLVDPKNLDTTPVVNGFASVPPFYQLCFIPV

[4] = system: HEK293; experiment: cells; type: functional, cell-based; details: Homo sapiens
[5] = biological target: T3, Nuclear receptor subfamily 0 group B member 1 (Homo sapiens, UniProt P51843); experiment: Luminescence-based cell-based high throughput dose response assay for inhibitors of the orphan nuclear receptor subfamily 0, group B, member 1 (DAX1; NR0B1). [Related pubchem assays (depositor defined):AID504766, AID504790]; type: functional
T3 sequence (P51843 whole entry): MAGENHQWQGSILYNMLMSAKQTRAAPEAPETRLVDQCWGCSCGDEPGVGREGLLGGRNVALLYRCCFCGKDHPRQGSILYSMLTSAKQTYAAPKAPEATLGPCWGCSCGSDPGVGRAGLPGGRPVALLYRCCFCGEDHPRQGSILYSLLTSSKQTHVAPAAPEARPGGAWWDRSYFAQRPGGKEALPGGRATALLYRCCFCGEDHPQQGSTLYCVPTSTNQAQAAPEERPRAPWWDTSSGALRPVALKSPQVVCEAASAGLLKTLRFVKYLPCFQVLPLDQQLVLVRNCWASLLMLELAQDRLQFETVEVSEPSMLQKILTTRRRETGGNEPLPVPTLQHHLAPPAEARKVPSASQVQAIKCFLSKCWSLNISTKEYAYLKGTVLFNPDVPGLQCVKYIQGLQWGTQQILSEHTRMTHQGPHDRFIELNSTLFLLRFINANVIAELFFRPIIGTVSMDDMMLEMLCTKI

[6] = system: A-375; experiment: MITF: Counter assay: A375 proliferation Measured in Cell-Based System Using Plate Reader - 2084-03_Inhibitor_Dose_DryPowder_Activity. [Related pubchem assays (depositor defined):AID488944]; type: functional; details: Homo sapiens
[7] = system: A-375; experiment: proliferation inhibition in MITF-low A375 cells – cell-based, cherry-pick samples, set 2, counter-screen for MITF modulator project, dose response (AID 540335); type: functional; details: Homo sapiens
[8] = biological target: Beta-2 adrenergic receptor (Homo sapiens, UniProt P07550); experiment: ADRB2 activation measured by internalization – cell-based, FAP fluorogen, flow cytometry, cherry pick 1, dose response (AID 588763); type: functional
[9] = biological target: Cytochrome P450 2C19 (Homo sapiens, UniProt P33261); experiment: Cytochrome panel assay with activity outcomes. Panel member name: p450-cyp2c19 Compounds with AC50 equal or less than 10 uM are considered active; type: functional
[10] = Trypanosoma cruzi growth suppression in host cells – NIH3T3 host cells, beta-gal luminescence, confirmation (AID 2044); type: functional, cell-based;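 also: intracellular parasites grown in NIH/3T3 mouse fibroblasts as host cells; luminescent beta-galactosidase reporter signal from transgenic T. cruzi replicating inside host cells; inhibitors lower the luminescence signal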
[11] = NIH3T3 cell viability loss – ATP luminescence, mouse fibroblasts, counter-screen, dose response (AID 2010); type: functional, cell-based;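 also: cells exposed to compound for about 90 hours before reading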
[12] = biological target: T4, Beta-galactosidase (Escherichia coli, UniProt Q8VNN2); experiment: detection-enzyme interference by beta-gal modulators – biochemical, E. coli enzyme, set 3, artefact control for CCR6 antagonist project, dose response (AID 504712); type: functional
T4 sequence (Q8VNN2 whole entry): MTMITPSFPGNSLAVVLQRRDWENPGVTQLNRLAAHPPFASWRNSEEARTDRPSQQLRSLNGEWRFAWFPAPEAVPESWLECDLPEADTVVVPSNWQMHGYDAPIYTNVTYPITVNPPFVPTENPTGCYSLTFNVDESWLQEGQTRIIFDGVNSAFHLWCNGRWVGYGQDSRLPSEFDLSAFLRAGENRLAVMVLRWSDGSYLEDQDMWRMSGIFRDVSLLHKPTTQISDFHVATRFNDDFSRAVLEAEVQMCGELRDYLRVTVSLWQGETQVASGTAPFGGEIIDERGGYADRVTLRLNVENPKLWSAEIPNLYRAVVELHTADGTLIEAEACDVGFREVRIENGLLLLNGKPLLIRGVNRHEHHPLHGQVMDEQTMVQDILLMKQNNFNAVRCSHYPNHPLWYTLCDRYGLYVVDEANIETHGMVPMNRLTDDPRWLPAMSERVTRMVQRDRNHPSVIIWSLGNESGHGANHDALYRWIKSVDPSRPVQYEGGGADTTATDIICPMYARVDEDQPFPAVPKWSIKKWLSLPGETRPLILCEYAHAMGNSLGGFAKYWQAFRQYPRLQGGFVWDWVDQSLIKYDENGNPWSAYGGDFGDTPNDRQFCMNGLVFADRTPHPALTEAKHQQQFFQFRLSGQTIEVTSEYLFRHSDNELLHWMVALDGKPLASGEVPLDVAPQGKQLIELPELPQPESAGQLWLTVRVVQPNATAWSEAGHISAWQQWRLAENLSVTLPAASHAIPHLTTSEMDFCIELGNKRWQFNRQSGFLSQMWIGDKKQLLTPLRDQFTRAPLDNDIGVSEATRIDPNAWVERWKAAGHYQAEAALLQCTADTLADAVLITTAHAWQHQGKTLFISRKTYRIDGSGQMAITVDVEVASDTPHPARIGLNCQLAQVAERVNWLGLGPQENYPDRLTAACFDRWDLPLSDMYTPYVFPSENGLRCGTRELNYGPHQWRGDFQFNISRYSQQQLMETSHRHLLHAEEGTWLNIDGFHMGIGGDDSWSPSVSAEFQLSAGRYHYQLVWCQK

[13] = biological target: T5, Microphthalmia-associated transcription factor (Homo sapiens, UniProt O75030); experiment: reducers of TRPM1 reporter luminescence, concentration series – cell-based, SK-MEL-5, cherry-picked, set 3, MITF inhibitor project, dose response (AID 493073); type: functional;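 also: SK-MEL-5 melanoma cells with luciferase driven by the MITF target TRPM1 promoter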
T5 sequence (O75030 whole entry): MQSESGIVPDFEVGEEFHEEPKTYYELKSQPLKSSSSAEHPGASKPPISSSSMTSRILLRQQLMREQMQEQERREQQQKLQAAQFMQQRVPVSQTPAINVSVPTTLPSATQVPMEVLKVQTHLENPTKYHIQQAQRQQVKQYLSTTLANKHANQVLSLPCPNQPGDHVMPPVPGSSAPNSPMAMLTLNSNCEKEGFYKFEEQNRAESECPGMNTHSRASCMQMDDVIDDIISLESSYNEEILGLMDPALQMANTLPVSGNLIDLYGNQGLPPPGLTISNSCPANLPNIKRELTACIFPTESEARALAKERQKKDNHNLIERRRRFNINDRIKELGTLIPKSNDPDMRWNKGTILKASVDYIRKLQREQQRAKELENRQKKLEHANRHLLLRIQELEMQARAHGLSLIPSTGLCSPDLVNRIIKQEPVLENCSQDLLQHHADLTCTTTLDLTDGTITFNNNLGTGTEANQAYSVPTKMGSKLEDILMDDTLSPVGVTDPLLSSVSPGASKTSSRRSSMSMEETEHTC

[14] = biological target: Glyceraldehyde-3-phosphate dehydrogenase (Homo sapiens, UniProt P04406)
[15] = biological target: SUMO E1/E2 (Homo sapiens, UniProt P63279+Q9UBE0+Q9UBT2); experiment: SAR analysis of SUMOylation using HTRF in an in-Vitro dose response assay. [Related pubchem assays (depositor defined):AID2006, AID2011, AID2018, AID2069, AID2658]; type: functional
[16] = decrease of insulin promoter-GFP reporter – imaging, high-content screening, mouse beta cells (AID 1628); type: functional; details: MIN6
[17] = MIN6 cell viability loss – mouse insulinoma, cytotoxicity control, dose response (AID 2122); type: functional;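 also: confirmatory high-throughput counterscreen run to flag cytotoxic compounds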
[18] = biological target: T6, Delta-type opioid receptor (Homo sapiens, UniProt P41143); experiment: HTS Image-Based Screen for Antagonists of the DOR Receptor. [Related pubchem assays (depositor defined):AID1777, AID1785, AID1786, AID2133]; type: functional
[19] = biological target: Mu-type opioid receptor (Homo sapiens, UniProt P35372); experiment: HTS Image-Based Screen for Agonists of the MOR Receptor. [Related pubchem assays (depositor defined):AID1777, AID1785, AID1786, AID2133]; type: functional;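 also: imaging of beta-arrestin GFP recruitment into spots after receptor activation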
[20] = biological target: T6, Delta-type opioid receptor; experiment: HTS Image-Based Screen for Agonists of the DOR Receptor. [Related pubchem assays (depositor defined):AID1777, AID1786, AID2133]; type: functional
[21] = biological target: T7, Kappa-type opioid receptor (Homo sapiens, UniProt P41145); type: functional
T7 sequence (P41145 whole entry): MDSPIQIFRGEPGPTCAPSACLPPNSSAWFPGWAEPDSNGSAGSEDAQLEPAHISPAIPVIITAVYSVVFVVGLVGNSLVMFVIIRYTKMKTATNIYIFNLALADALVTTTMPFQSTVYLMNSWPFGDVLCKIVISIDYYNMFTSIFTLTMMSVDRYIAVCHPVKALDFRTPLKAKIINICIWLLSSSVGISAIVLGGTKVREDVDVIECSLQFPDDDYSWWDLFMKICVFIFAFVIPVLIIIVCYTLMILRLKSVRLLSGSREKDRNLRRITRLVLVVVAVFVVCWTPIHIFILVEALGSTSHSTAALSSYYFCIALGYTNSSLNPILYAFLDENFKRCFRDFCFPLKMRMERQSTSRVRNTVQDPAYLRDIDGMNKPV

[22] = biological target: T4, Beta-galactosidase; type: functional
[23] = biological target: T7, Kappa-type opioid receptor; type: functional; remark: listed apart in the source
[24] = HEK-293T cell viability reduction – luminescence, B-cell screen hits, cytotoxicity control for BCR NF-kB inhibitor project, dose response (AID 489021); type: functional, cell-based;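 also: HEK-293T cells carrying an NF-kB luciferase reporter; cells exposed to compound for about 14 hours before viability readout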
[25] = system: HEK293; experiment: HEK293T cell viability loss, resazurin readout – resazurin fluorescence, cytotoxicity control for NF-kB activator project, SAR follow-up (AID 493251); type: functional, cell-based; details: Homo sapiens
[26] = system: Jurkat; experiment: SAR Analysis of small molecule inhibitors of T-cell specific antigen receptor-induced NF-kB activation in a Jurkat cell line using a luminescence assay - Set 2. [Related pubchem assays (depositor defined):AID435003, AID435012, AID465]; type: functional, cell-based; details: Homo sapiens
[27] = system: HEK293; experiment: SAR Analysis of small molecule inhibitors of T-cell specific antigen receptor-induced NF-kB activation in a HEK-293T cell line using a luminescence assay - Set 2. [Related pubchem assays (depositor defined):AID435003, AID435012, AID489026]; type: functional, cell-based; details: Homo sapiens
[28] = biological target: T2, Cytochrome P450 2C9; remark: listed apart in the source
[29] = NIH-3T3 fibroblast cytotoxicity, dose response, cytotoxicity control, cell-based, fluorescence, Alamar Blue, secondary assay (AID 2327); type: functional;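 also: NIH-3T3 mouse fibroblasts cultured with fluconazole at 8 µg/mL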
[30] = biological target: Nonstructural protein 1 (Influenza A virus, UniProt Q194T2); type: functional, Influenza A virus (A/California/07/2009(H1N1))
[31] = biological target: Lysine-specific demethylase 4C (Homo sapiens, UniProt Q9H3R0); experiment: inhibition of JMJD2C H3K9me3 demethylation – biochemical, DELFIA europium, cherry-picked samples, dose response (AID 488835); type: functional
[32] = biological target: T8, Mannose-6-phosphate isomerase (Homo sapiens, UniProt P34949); experiment: phosphomannose isomerase inhibition – biochemical, fluorescence intensity, confirmation (AID 1535)
T8 sequence (P34949 whole entry): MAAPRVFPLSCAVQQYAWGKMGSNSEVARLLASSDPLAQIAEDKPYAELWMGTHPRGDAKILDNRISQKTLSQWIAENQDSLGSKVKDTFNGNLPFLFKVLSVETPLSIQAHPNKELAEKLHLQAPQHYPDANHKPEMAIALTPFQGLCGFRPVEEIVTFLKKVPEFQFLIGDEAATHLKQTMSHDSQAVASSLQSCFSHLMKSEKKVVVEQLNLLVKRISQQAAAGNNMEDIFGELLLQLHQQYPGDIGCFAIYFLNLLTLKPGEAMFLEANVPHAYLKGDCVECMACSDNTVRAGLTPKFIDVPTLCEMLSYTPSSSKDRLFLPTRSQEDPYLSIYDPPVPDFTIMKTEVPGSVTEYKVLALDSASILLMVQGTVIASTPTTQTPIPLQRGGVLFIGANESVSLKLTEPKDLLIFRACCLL

[33] = biological target: Phosphomannomutase 2 (Homo sapiens, UniProt O15305); experiment: Counter screen SAR assay for PMM2 inhibitors via a fluorescence intensity assay. [Related pubchem assays (depositor defined):AID1545, AID1574]
[34] = biological target: T9, Voltage-gated N-type calcium channel alpha-1B subunit/Amyloid beta A4 precursor protein-binding family A member 1 (Homo sapiens, UniProt Q00975+Q02410); experiment: disruptors of Mint-PDZ/N-type channel peptide interaction – biochemical, HTRF, set 2, SAR follow-up (AID 434980); type: functional
T9 sequence (Q00975 whole entry): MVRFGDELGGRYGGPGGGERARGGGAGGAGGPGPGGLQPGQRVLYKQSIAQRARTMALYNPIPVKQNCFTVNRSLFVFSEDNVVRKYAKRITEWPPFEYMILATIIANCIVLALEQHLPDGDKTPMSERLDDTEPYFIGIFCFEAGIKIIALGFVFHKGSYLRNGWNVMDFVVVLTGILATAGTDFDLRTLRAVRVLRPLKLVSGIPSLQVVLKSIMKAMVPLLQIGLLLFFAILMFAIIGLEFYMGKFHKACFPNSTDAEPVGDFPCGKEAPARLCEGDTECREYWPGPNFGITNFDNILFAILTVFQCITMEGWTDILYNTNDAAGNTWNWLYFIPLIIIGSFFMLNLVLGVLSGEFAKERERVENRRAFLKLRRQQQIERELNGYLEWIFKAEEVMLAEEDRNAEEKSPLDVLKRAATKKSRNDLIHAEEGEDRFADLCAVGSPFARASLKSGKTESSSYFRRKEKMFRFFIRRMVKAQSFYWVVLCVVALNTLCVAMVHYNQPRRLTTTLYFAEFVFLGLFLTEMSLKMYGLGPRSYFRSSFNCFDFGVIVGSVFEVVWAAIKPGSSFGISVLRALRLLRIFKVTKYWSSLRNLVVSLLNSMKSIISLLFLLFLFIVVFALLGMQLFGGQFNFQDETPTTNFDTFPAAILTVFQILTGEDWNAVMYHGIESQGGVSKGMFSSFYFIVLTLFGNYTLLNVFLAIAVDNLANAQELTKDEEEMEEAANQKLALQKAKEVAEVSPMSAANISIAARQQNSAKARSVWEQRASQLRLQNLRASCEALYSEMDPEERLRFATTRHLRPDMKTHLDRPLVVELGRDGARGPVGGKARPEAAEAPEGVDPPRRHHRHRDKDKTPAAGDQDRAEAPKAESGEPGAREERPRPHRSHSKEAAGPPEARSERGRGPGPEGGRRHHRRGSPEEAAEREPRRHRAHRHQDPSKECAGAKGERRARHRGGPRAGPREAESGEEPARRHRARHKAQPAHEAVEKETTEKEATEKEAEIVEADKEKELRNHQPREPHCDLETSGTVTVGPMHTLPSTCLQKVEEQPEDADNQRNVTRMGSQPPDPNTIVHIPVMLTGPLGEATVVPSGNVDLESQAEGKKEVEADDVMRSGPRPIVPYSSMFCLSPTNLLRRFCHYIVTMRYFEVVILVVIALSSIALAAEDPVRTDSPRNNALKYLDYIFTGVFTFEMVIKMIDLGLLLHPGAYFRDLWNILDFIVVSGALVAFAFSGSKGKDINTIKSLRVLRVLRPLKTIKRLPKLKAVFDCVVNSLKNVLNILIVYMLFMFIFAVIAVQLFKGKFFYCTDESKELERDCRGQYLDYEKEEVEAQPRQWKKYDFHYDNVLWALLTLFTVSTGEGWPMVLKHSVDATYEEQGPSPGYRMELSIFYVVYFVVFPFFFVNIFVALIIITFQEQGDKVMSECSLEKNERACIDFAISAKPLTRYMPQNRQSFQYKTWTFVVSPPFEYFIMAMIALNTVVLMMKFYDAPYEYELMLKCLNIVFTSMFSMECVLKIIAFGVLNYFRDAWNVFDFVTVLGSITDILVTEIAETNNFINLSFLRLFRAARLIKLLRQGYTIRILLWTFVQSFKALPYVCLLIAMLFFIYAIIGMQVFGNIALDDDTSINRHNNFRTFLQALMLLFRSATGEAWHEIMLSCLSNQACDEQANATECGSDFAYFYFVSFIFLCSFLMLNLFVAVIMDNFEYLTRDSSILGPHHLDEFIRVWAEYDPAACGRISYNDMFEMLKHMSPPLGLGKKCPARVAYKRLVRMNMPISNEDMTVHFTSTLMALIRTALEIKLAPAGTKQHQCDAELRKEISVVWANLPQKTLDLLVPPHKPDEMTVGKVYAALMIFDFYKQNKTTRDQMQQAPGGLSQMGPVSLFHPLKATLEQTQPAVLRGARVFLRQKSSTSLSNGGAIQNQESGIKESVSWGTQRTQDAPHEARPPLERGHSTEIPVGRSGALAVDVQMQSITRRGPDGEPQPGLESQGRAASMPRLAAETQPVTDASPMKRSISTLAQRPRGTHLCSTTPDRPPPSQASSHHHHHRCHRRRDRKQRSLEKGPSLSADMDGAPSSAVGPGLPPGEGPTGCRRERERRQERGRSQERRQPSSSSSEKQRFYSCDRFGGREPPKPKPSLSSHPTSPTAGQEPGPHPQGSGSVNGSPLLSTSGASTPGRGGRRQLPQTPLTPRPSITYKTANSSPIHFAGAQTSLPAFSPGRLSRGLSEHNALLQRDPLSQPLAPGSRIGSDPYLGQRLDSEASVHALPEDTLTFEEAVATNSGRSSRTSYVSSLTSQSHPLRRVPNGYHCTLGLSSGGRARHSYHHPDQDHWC
T9 sequence (Q02410 whole entry): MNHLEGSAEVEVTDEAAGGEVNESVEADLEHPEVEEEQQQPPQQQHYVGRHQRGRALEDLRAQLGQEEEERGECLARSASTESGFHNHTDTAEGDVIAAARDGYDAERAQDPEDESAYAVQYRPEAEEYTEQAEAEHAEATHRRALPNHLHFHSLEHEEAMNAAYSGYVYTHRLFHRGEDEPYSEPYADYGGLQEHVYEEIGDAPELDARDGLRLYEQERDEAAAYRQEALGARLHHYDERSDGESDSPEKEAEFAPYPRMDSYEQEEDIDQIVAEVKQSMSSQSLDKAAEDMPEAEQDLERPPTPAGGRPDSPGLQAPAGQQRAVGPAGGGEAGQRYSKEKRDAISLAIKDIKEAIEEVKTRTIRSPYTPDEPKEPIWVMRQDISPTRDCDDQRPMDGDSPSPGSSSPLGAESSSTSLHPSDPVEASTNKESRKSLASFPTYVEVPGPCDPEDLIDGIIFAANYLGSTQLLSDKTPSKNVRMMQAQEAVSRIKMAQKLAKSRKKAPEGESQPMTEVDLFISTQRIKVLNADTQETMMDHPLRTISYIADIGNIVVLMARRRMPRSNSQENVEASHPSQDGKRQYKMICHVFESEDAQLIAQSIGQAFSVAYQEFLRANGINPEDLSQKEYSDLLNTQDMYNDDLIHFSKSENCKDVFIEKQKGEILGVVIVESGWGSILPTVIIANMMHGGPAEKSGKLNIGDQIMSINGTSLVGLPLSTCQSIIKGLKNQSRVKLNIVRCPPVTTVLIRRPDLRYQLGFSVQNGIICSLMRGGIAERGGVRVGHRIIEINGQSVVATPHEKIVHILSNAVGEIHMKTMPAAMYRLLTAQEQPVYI

[35] = biological target: T9, Voltage-gated N-type calcium channel alpha-1B subunit/Amyloid beta A4 precursor protein-binding family A member 1; experiment: disruptors of Mint-PDZ/N-type channel peptide interaction – biochemical, HTRF, SAR follow-up (AID 2489); type: functional

For `COC(=O)N1CCC[C@@]2(CCN(c3ccncc3)C2)C1`, the AC50 [1] was “inconclusive”, the AC50 [2] was “inconclusive” and the AC50 [3] was “inconclusive”.

With `CN1C(C(=O)Nc2cccc(O)c2)=CC(c2ccco2)=NS1(=O)=O` the IC50 [4] was > 67.6 µM (inactive) and the IC50 [5] was > 67.6 µM (inactive).

For `O=C(Nc1ccc(-c2cn3c(n2)SCC3)cc1)c1ccco1`, the AC50 [6] was > 35 µM (active) and the AC50 [7] was > 35 µM (active).

For `CCOc1ccc(CNC(=O)c2ccc(NC(=O)C3=CSCCO3)cc2)cc1`, the EC50 [8] was 0.0608 µM (active).

For `CS(=O)(=O)N1CCC2(CCN(c3cccc(-c4ccccc4)c3)CC2)CC1`, the AC50 [9] was “inconclusive”, the AC50 [2] was “inconclusive” and the AC50 [3] was “inconclusive”.

With `CS(=O)(=O)c1ccc([S+]([O-])CC(=O)OCc2ccccc2)c([N+](=O)[O-])c1` (stereo not drawn) the EC50 [10] was 3.05 µM (active), the EC50 [11] was 2.01 µM (active) and the IC50 [12] was > 66.6 µM (inactive). For the same molecule, the AC50 [13] was 5.46 µM (active) and the AC50 [7] was 21 µM (active).

For `NS(=O)(=O)c1ccc2c(c1)C1C=CCC1C(c1ccc([N+](=O)[O-])cc1)N2` (stereo not drawn), the IC50 [14] was > 100 µM (not active) and the IC50 [15] was > 100 µM (inactive).

For `Cn1c2c(c(=O)[nH]c1=O)C(c1cccc(O)c1)C1=C(O)c3ccccc3C1=N2` (stereo not drawn), the IC50 [16] was 1.87 µM (active) and the IC50 [17] was 1.92 µM (active).

For `CCN(CCCNC(=O)C1CCN(S(=O)(=O)N2CCC3(CC2)OCCO3)CC1)c1ccccc1`, the IC50 [18] was > 32 µM (inactive), the EC50 [19] was > 32 µM (inactive) and the EC50 [20] was > 32 µM (inactive). For the same molecule, the IC50 [21] was 9.46 µM (active), the EC50 [22] was > 31.5 µM (inactive) and the IC50 [23] was 9.69 µM.

For `CC(=O)c1c(C)[nH]c(C(=O)Nc2ccc(Cl)c(S(=O)(=O)N(C)C)c2)c1C`, the IC50 [4] was > 67.5 µM (inactive) and the IC50 [5] was > 67.5 µM (inactive).

With `CNC(=O)CCc1nc(-c2ccc(C(C)(C)C)cc2)no1` the IC50 [24] was > 80 µM (inactive), the AC50 ([9]; read-out: AC50) was 39.8 µM (inconclusive) and the IC50 [25] was > 80 µM (inactive). For the same molecule, the IC50 [26] was > 79 µM (inactive), the IC50 [27] was 53.1 µM (inactive) and the AC50 [28] was 0.355 µM (inconclusive).

For `Cc1ccc(O)c(NN=C2C(=O)CC(C)(C)CC2=O)c1`, the EC50 [29] was > 160 µM (inactive), the IC50 [30] was 13.2 µM (active) and the AC50 [31] was 10.5 µM (active).

For `O=[N+]([O-])c1ccc(/N=c2/ssnc2Cl)c([N+](=O)[O-])c1`, the IC50 [32] was 3.52 µM (active) and the IC50 [33] was 58.4 µM (active).

In the case of `COc1ccccc1COC(=O)COC(=O)c1cc(-c2ccco2)nc2ccccc12`, the IC50 [15] is reported as 12.9 µM (active), the IC50 [34] is reported as 6.59 µM (active) and the IC50 [35] is reported as 9.09 µM (active).

For `C=CCc1ccc(OCCOc2ccc(/C=N/n3cnnc3)cc2OCC)c(OC)c1`, the EC50 [8] was 0.587 µM (active).
